This is an account of results in patent US8883782B2, “Spiro-tetracyclic ring compounds as beta-secretase modulators and methods of use” (Amgen Inc., priority 2010, dated 2014).

Molecules are shown by their SMILES. Like-named read-outs stand apart in the source and are kept apart here. Bounds are passed on as bounds.

Experiment [1] addresses Beta Secretase enzyme (BACE) (Homo sapiens, UniProt P56817). The experiment is described as follows: In vitro enzymatic BACE FRET (fluorescence resonance energy transfer) assay. The format is biochemical. Particulars: average IC50, enzyme assay; read-out: BACE 1 FRET assay. An outline of the steps:
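Buffer 0.05 M acetate pH 4.2, 10% DMSO final, 100 uM genapol (sub-CMC); start with 50 nM FRET substrate; 1 h incubation; Tris stop; fluorescence read.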

The test system of experiment [2] is Aβ40 in conditioned medium of cells stably expressing Amyloid Precursor Protein (APP). As to the kind of experiment: In vitro BACE cell-based assay (Aβ40 in conditioned medium, sandwich ELISA). To be noted: read-out: HEK cell assay. An outline of the steps: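 Secreted Aβ40 is captured with pAb40 and detected with biotinylated 6E10, read by europium time-resolved fluorescence. IC50 comes from percent inhibition versus concentration.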
(An ELISA detects its analyte on a solid surface through an enzyme-linked reagent.)

The mark [3] stands for this setting: Homo sapiens, HEK293, average IC50.
[4] abbreviates: Homo sapiens, HEK293, average IC50, HEK cells.

Sequence of Beta Secretase enzyme (BACE) (P56817 46-501, species assumed): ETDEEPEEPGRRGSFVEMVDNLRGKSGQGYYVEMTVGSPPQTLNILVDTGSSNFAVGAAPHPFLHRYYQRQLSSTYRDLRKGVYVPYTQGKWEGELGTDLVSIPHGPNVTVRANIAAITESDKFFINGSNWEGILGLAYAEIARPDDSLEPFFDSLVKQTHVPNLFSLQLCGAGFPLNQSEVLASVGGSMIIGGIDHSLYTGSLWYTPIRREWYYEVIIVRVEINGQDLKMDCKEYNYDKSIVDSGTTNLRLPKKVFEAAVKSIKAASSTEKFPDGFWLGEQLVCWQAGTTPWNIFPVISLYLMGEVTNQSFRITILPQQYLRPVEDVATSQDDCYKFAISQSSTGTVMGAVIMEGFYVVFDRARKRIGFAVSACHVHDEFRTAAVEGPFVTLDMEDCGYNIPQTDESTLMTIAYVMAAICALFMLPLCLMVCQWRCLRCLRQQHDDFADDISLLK

For `NC1=N[C@@]2(CO1)c1cc(-c3cnccc3F)ccc1Oc1ncc(C3=CCOCC3)cc12` [Example 358, (5S)-3-(3,6-dihydro-2H-pyran-4-yl)-7-(4-fluoro-3-pyridinyl)spiro[chromeno[2,3-b]pyridine-5,4′-[1,3]oxazol]-2′-amine], the IC50 in experiment [1] is 2.6 nM; in experiment [2] (setting [3]), 24.6 nM.
The like results for `COc1ncccc1-c1ccc2c(c1)[C@@]1(COC(N)=N1)c1cc(C3=CCOCC3)ncc1O2` [Example 240, (5S)-3-(3,6-dihydro-2H-pyran-4-yl)-7-(2-methoxy-3-pyridinyl)spiro[chromeno[2,3-c]pyridine-5,4′-[1,3]oxazol]-2′-amine] were, in that order, 17.3 nM and 108 nM.
With `COc1cc(F)c2c(c1)[C@]1(COC(N)=N1)c1cc(-c3cncc(C#CC(C)(C)O)c3)ccc1O2` [Example 822, 4-(5-((4S)-2-amino-5′-fluoro-7′-methoxyspiro[1,3-oxazole-4,9′-xanthen]-2′-yl)-3-pyridinyl)-2-methyl-3-butyn-2-ol], the IC50 in experiment [1] was determined as 93.3 nM; in experiment [2] (setting [3]), 3000 nM.
Take `NC1=N[C@]2(CO1)c1cc(C3=CCCOC3)cc(F)c1Oc1ccc(-c3cncnc3)c(F)c12` [Example 1049, (4R)-7′-(5,6-dihydro-2H-pyran-3-yl)-1′,5′-difluoro-2′-(5-pyrimidinyl)spiro[1,3-oxazole-4,9′-xanthen]-2-amine]: the IC50 is 15.6 nM in experiment [1] and 85 nM in experiment [2] (setting [3]).
Take `COc1nc(C2CCCOC2)cc2c1Oc1ccc(-c3cccnc3F)cc1[C@@]21COC(N)=N1` (stereo partly drawn) [Example 844, (5S)-7-(2-fluoro-3-pyridinyl)-1-methoxy-3-(tetrahydro-2H-pyran-3-yl)spiro[chromeno[2,3-c]pyridine-5,4′-[1,3]oxazol]-2′-amine]: the IC50 in experiment [1] turned out to be 6.7 nM; in experiment [2] (setting [3]) it was 66 nM.
On to `COc1cc(F)c2c(c1)[C@]1(CSC(N)=N1)c1cc(-c3cccnc3F)ccc1O2` [Example 608, (4S)-4′-fluoro-7′-(2-fluoro-3-pyridinyl)-2′-methoxyspiro[1,3-thiazole-4,9′-xanthen]-2-amine], for which the IC50 in experiment [1] worked out at 3.6 nM; in experiment [2] (setting [4]) it was 162 nM.
As for `Cc1cc(-c2ccc3c(c2)[C@@]2(COC(N)=N2)c2cc(C4=CCOCC4)ncc2O3)ccc1F` [Example 551, (5S)-3-(3,6-dihydro-2H-pyran-4-yl)-7-(4-fluoro-3-methylphenyl)spiro[chromeno[2,3-c]pyridine-5,4′-[1,3]oxazol]-2′-amine], the IC50 in experiment [1] came out at 3.4 nM; in experiment [2] (setting [4]), 80.7 nM.
With `CC1(C#Cc2cnc3c(c2)[C@@]2(COC(N)=N2)c2cc(-c4cccnc4F)c(F)cc2O3)COC1` [compound 108], the IC50 came out at 2 nM in experiment [1] and 3.6 nM in experiment [2] (setting [3]).
The like results for `COc1nc(C2=CCCOC2)cc2c1Oc1ccc(-c3cccnc3F)cc1[C@@]21COC(N)=N1` [Example 833, (5S)-3-(5,6-dihydro-2H-pyran-3-yl)-7-(2-fluoro-3-pyridinyl)-1-methoxyspiro[chromeno[2,3-c]pyridine-5,4′-[1,3]oxazol]-2′-amine] were, in that order, 0.7 nM and 21 nM.
For `NC1=N[C@@]2(CO1)c1cc(OCc3cccnc3)ccc1Oc1ncc(Br)cc12` [Example 976, (5S)-3-bromo-7-(3-pyridinylmethoxy)spiro[chromeno[2,3-b]pyridine-5,4′-[1,3]oxazol]-2′-amine], the IC50 in experiment [1] is 3810 nM; in experiment [2] (setting [3]), ≥ 10000 nM.
On to `NC1=N[C@]2(CO1)c1cc(-c3cccnc3F)c(F)cc1Oc1ncc(-c3ccc(F)nc3)cc12` [Example 897, (5R)-8-fluoro-7-(2-fluoro-3-pyridinyl)-3-(6-fluoro-3-pyridinyl)spiro[chromeno[2,3-b]pyridine-5,4′-[1,3]oxazol]-2′-amine], for which the figures for the IC50 in experiment [1] and in experiment [2] (setting [4]) were 175 nM and 6360 nM, respectively.
For the molecule `NC1=N[C@@]2(CO1)c1cc(-c3cccnc3)ccc1Oc1c2cc(-c2ccnc(F)c2)c(F)c1F` [Example 1013, (4S)-3′,4′-difluoro-2′-(2-fluoro-4-pyridinyl)-7′-(3-pyridinyl)spiro[1,3-oxazole-4,9′-xanthen]-2-amine], the IC50 in experiment [1] worked out at 2.4 nM; in experiment [2] (setting [3]), 100 nM.
In the same order, the values of `CC1(C)CCN(c2cnc3c(c2)[C@]2(COC(N)=N2)c2cc(C#CC4CC4)ccc2O3)C1` [Example 182, (5S)-7-(cyclopropylethynyl)-3-(3,3-dimethyl-1-pyrrolidinyl)spiro[chromeno[2,3-b]pyridine-5,4′-[1,3]oxazol]-2′-amine] are 3.1 nM and 22 nM.
Turning to `COc1ncc(-c2ccc3c(c2)[C@@]2(COC(N)=N2)c2cc(/C=C/C(C)(C)C)ncc2O3)cn1` [Example 406, (5S)-3-((1E)-3,3-dimethyl-1-buten-1-yl)-7-(2-methoxy-5-pyrimidinyl)spiro[chromeno[2,3-c]pyridine-5,4′-[1,3]oxazol]-2′-amine], the IC50 turned out to be 183 nM in experiment [1] and 712 nM in experiment [2] (setting [4]).
Turning to `NC1=N[C@@]2(CS1)c1cc(-c3cccnc3)ccc1Oc1c(F)cc(N3CCOCC3)cc12` [Example 799, (4S)-4′-fluoro-2′-(4-morpholinyl)-7′-(3-pyridinyl)spiro[1,3-thiazole-4,9′-xanthen]-2-amine], the IC50 is 1.5 nM in experiment [1] and 18 nM in experiment [2] (setting [3]).
Take `N#Cc1cccc(-c2ccc3c(c2)[C@@]2(COC(N)=N2)c2cc(N4CCOCC4)ncc2O3)c1` [Example 895, 3-((5S)-2′-amino-3-(4-morpholinyl)spiro[chromeno[2,3-c]pyridine-5,4′-[1,3]oxazol]-7-yl)benzonitrile]: the IC50 was 2.4 nM in experiment [1] and 8 nM in experiment [2] (setting [4]).
In the case of `CC1(C#Cc2cnc3c(c2)[C@]2(COC(N)=N2)c2c(ccc(-c4cncnc4)c2F)O3)COC1` [Example 344, (5R)-6-fluoro-3-((3-methyl-3-oxetanyl)ethynyl)-7-(5-pyrimidinyl)spiro[chromeno[2,3-b]pyridine-5,4′-[1,3]oxazol]-2′-amine], the IC50 in experiment [1] came out at 1 nM; in experiment [2] (setting [3]), 6.5 nM.
`CC1(C#Cc2cnc3c(c2)[C@]2(COC(N)=N2)c2cc(O)ccc2O3)COC1` [Example 690, (5S)-2′-amino-3-((3-methyl-3-oxetanyl)ethynyl)spiro[chromeno[2,3-b]pyridine-5,4′-[1,3]oxazol]-7-ol]: the values for the IC50 in experiment [1] and in experiment [2] (setting [4]) were 346 nM and 2150 nM, respectively.
Take `NC1=N[C@@]2(CO1)c1cc(-c3cccnc3F)ccc1Oc1c2cc(C#Cc2cccnc2)nc1F` [Example 748, (5S)-1-fluoro-7-(2-fluoro-3-pyridinyl)-3-(3-pyridinylethynyl)spiro[chromeno[2,3-c]pyridine-5,4′-[1,3]oxazol]-2′-amine]: the IC50 stood at 0.4 nM in experiment [1] and 74 nM in experiment [2] (setting [3]).
With `NC1=N[C@@]2(CO1)c1cc(-c3cccnc3)ccc1Oc1c2cc(C2=CCOCC2)nc1F` [Example 639, (5S)-3-(3,6-dihydro-2H-pyran-4-yl)-1-fluoro-7-(3-pyridinyl)spiro[chromeno[2,3-c]pyridine-5,4′-[1,3]oxazol]-2′-amine], the IC50 in experiment [1] stood at 0.4 nM; in experiment [2] (setting [4]), 3 nM.
In the case of `CC1(C#Cc2cnc3c(c2)[C@]2(COC(N)=N2)c2cc(-c4ccc(F)c(F)c4)ccc2O3)COC1` [Example 188, (5S)-7-(3,4-difluorophenyl)-3-((3-methyl-3-oxetanyl)ethynyl)spiro[chromeno[2,3-b]pyridine-5,4′-[1,3]oxazol]-2′-amine], the results for the IC50 in experiment [1] and in experiment [2] (setting [3]) were 4.5 nM and 86.6 nM, respectively.
In the case of `COC[C@H]1SC(N)=NC12c1cc(-c3cccnc3F)ccc1Oc1cnc(-c3ccnc(F)c3)cc12` (single isomer, unassigned) [Example 1095, (4′S/R,5′S)-7-(2-fluoropyridin-3-yl)-3-(2-fluoropyridin-4-yl)-5′-(methoxymethyl)-5′H-spiro[chromeno[2,3-c]pyridine-5,4′-thiazol]-2′-amine], the values for the IC50 in experiment [1] and in experiment [2] were 573 nM and 5990 nM, respectively.
As to `NC1=N[C@@]2(CO1)c1cc(OCc3ccc(Br)cc3)ccc1Oc1ncc(-c3cccnc3)cc12` [Example 980, (5S)-7-((4-bromobenzyl)oxy)-3-(3-pyridinyl)spiro[chromeno[2,3-b]pyridine-5,4′-[1,3]oxazol]-2′-amine], the IC50 in experiment [1] was 45.6 nM; in experiment [2] (setting [3]) it was 336 nM.
For the molecule `N#Cc1cncc(-c2ccc3c(c2)[C@@]2(COC(N)=N2)c2cc(N4CCOCC4)cc(F)c2O3)c1` [Example 558, 5-((4S)-2-amino-5′-fluoro-7′-(4-morpholinyl)spiro[1,3-oxazole-4,9′-xanthen]-2′-yl)-3-pyridinecarbonitrile], the values for the IC50 in experiment [1] and in experiment [2] (setting [4]) were 1.7 nM and 5.7 nM, respectively.
Take `NC1=N[C@@]2(CO1)c1cc(-c3cccnc3F)ccc1Oc1cnc(-c3ccncc3F)cc12` [Example 572, (5S)-7-(2-fluoro-3-pyridinyl)-3-(3-fluoro-4-pyridinyl)spiro[chromeno[2,3-c]pyridine-5,4′-[1,3]oxazol]-2′-amine]: the IC50 came out at 11.8 nM in experiment [1] and 148 nM in experiment [2] (setting [4]).
As to `COc1ncc(Cl)cc1-c1ccc2c(c1)[C@@]1(COC(N)=N1)c1cc(C3=CCOCC3)ncc1O2` [Example 235, (5S)-7-(5-chloro-2-methoxy-3-pyridinyl)-3-(3,6-dihydro-2H-pyran-4-yl)spiro[chromeno[2,3-c]pyridine-5,4′-[1,3]oxazol]-2′-amine], the IC50 was 1.2 nM in experiment [1] and 14.7 nM in experiment [2] (setting [3]).
In the same order, the values of `NC1=N[C@@]2(CO1)c1cc(-c3cccnc3O)ccc1Oc1cnc(-c3ccnc(F)c3)cc12` [Example 712, (S)-3-(2′-amino-3-(2-fluoropyridin-4-yl)-5′H-spiro[chromeno[2,3-c]pyridine-5,4′-oxazole]-7-yl)pyridin-2-ol] are 69.7 nM and 1090 nM.
